These results are taken from US7994185B2, “Benzene sulfonamide thiazole and oxazole compounds” (Glaxo Smith Kline LLC, priority 2008, dated 2011).

Assay [1] concerns the target T1, BRAFV600E full-length (amino acids 2-766) (Homo sapiens, UniProt P15056, V600E).
T1 construct: His6-tagged BRAFV600E full-length (amino acids 2-766); His6; made in house; host or cells: baculovirus expression system (insect cells)
Kind of assay: B-Raf Accelerated MEK ATPase assay (BRAMA). Format: biochemical. Conditions: categorized. The procedure, abridged:
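Coupled-enzyme readout: ADP generated by MEK-mediated ATP hydrolysis, uncoupled from ERK phosphorylation, is linked to NADH oxidation through pyruvate kinase and lactate dehydrogenase.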

For assay [2], the system named is Human colon tumor cells (Colo205). Briefly: Cell growth inhibition assay (CellTiter-Glo), Colo205. Format: cell-based. The method, boiled down: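 Read-out was CellTiter-Glo luminescence (total ATP as a cell-number surrogate), expressed as % inhibition against DMSO vehicle wells. Before that, cells grown in RPMI/10% FBS were treated for 3 days at 37 °C with ten 1:3-spaced compound concentrations, final DMSO 0.2%.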

For assay [3], the system named is Human melanoma cancer cells (SK-MEL-28). Kind of assay: Cell growth inhibition assay (CellTiter-Glo), SK-MEL-28. The class given is cell-based. Background: ATP-based viability assays read luminescence as a measure of living cells.
The mark [4] stands for this setting: B-Raf Activity, Table 1a, highest pIC50 for the one or more runs.
[5] abbreviates: B-Raf pIC50, Table 1b, later runs, average pIC50 for the one or more runs.
The mark [6] stands for this setting: COLO 205, 72 h, Table 2a, 3 days incubation, read-out: Activity in Colo205 Tumor Cells.
[7] abbreviates: COLO 205, Table 2b, later runs, average for the one or more runs, categorized, read-out: IC50 for Colo205.
Setting [8] is: SK-MEL-28, 72 h, Table 3a, 3 days incubation, read-out: Activity in SK-MEL-28 Tumor Cells.
[9] abbreviates: SK-MEL-28, Table 3b, later runs, average for the one or more runs, categorized, read-out: IC50 for SK-MEL-28.
[10] abbreviates: Table 1b, later runs, average pIC50 for the one or more runs, read-out: B-Raf pIC50 (converted).

Each structure is given as a SMILES string. Like-named read-outs stand apart in the source and are kept apart here. Where only a bound is given, the exact number is not on record here.

T1 sequence (P15056 2-766 V600E): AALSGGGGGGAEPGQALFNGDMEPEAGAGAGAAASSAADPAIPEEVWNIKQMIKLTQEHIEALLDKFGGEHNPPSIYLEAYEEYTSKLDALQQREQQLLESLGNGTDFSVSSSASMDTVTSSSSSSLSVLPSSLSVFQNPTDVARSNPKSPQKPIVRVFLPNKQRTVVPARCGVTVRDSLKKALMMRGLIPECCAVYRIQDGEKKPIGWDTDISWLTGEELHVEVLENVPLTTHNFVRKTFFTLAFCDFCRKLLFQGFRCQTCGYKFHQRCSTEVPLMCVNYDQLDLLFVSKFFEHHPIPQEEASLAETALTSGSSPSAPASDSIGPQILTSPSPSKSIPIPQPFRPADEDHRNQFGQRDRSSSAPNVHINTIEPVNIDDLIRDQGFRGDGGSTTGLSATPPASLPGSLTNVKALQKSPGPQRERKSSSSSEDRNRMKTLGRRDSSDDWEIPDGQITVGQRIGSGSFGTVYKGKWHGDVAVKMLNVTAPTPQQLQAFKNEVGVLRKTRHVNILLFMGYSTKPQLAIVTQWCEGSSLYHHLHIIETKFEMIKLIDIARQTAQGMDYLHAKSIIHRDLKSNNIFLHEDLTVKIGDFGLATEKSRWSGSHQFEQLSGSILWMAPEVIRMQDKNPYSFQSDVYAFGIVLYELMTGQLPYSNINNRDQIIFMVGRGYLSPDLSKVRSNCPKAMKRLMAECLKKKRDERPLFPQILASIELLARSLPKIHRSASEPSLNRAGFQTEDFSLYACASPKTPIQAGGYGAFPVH

As to `CC(C)CNc1nccc(-c2sc(C3CCOCC3)nc2-c2ccc(F)c(NS(=O)(=O)c3cc(F)ccc3F)c2)n1` [Example 69, 2,5-Difluoro-N-{2-fluoro-5-[5-{2-[(2-methylpropyl)amino]-4-pyrimidinyl}-2-(tetrahydro-2H-pyran-4-yl)-1,3-thiazol-4-yl]phenyl}benzenesulfonamide], the IC50 in assay [1] (setting [4]) is under 100 nM; in assay [1] (setting [5]), at most 3.16 nM; in assay [2] (setting [6]), 100 to 1000 nM; in assay [2] (setting [7]), 100 to 1000 nM; in assay [3] (setting [8]) it was 100 to 1000 nM; in assay [3] (setting [9]) it was 100 to 1000 nM.

Turning to `CS(=O)(=O)N1CCC(Nc2nccc(-c3sc(C4CCOCC4)nc3-c3ccc(F)c(NS(=O)(=O)c4cc(F)ccc4F)c3)n2)CC1` [Example 70, 2,5-Difluoro-N-{2-fluoro-5-[5-(2-{[1-(methylsulfonyl)-4-piperidinyl]amino}-4-pyrimidinyl)-2-(tetrahydro-2H-pyran-4-yl)-1,3-thiazol-4-yl]phenyl}benzenesulfonamide], the IC50 was under 100 nM in assay [1] (setting [4]); 3.16 to 31.6 nM in assay [1] (setting [10]); 100 to 1000 nM in assay [2] (setting [6]); 100 to 1000 nM in assay [2] (setting [7]); 100 to 1000 nM in assay [3] (setting [8]); 100 to 1000 nM in assay [3] (setting [9]).

On to `Nc1nccc(-c2sc(C3CCOC3)nc2-c2cccc(NS(=O)(=O)c3c(F)cccc3F)c2F)n1` (stereo not drawn) [Example 71, N-{3-[5-(2-Amino-4-pyrimidinyl)-2-(tetrahydro-3-furanyl)-1,3-thiazol-4-yl]-2-fluorophenyl}-2,6-difluorobenzenesulfonamide], for which the IC50 in assay [1] (setting [4]) is under 100 nM; in assay [1] (setting [10]), 3.16 to 31.6 nM; in assay [2] (setting [6]), 100 to 1000 nM; in assay [2] (setting [7]) it was 100 to 1000 nM; in assay [3] (setting [8]), 100 to 1000 nM; in assay [3] (setting [9]), 100 to 1000 nM.

Take `Nc1nccc(-c2sc(C3CCC3)nc2-c2cccc(NS(=O)(=O)c3c(F)cccc3F)c2Cl)n1` [Example 72, N-{3-[5-(2-Amino-4-pyrimidinyl)-2-cyclobutyl-1,3-thiazol-4-yl]-2-chlorophenyl}-2,6-difluorobenzenesulfonamide]: the IC50 in assay [1] (setting [4]) is under 100 nM; in assay [1] (setting [5]) it was at most 3.16 nM; in assay [2] (setting [6]) it was 100 to 1000 nM; in assay [2] (setting [7]) it was 100 to 1000 nM; in assay [3] (setting [8]), under 100 nM; in assay [3] (setting [9]), under 100 nM.

In the case of `CNc1nccc(-c2sc(C(C)C)nc2-c2ccc(F)c(NS(=O)(=O)c3cc(F)ccc3F)c2)n1` [Example 73, 2,5-Difluoro-N-{2-fluoro-5-[5-[2-(methylamino)-4-pyrimidinyl]-2-(1-methylethyl)-1,3-thiazol-4-yl]phenyl}benzenesulfonamide], the IC50 in assay [1] (setting [4]) was under 100 nM; in assay [1] (setting [10]) it was 3.16 to 31.6 nM; in assay [2] (setting [6]), over 1000 nM; in assay [2] (setting [7]), 1000 to 10000 nM; in assay [3] (setting [8]) it was over 1000 nM; in assay [3] (setting [9]) it was 1000 to 10000 nM.

As to `CC(C)c1nc(-c2ccc(F)c(NS(=O)(=O)c3cc(F)ccc3F)c2)c(-c2ccnc(NC3CC(C)(C)NC(C)(C)C3)n2)s1` [Example 74, 2,5-Difluoro-N-[2-fluoro-5-(2-(1-methylethyl)-5-{2-[(2,2,6,6-tetramethyl-4-piperidinyl)amino]-4-pyrimidinyl}-1,3-thiazol-4-yl)phenyl]benzenesulfonamide], the IC50 in assay [1] (setting [4]) was under 100 nM; in assay [1] (setting [5]), at most 3.16 nM; in assay [2] (setting [6]) it was under 100 nM; in assay [2] (setting [7]), under 100 nM; in assay [3] (setting [8]) it was 100 to 1000 nM; in assay [3] (setting [9]) it was 100 to 1000 nM.

With `CC(C)c1nc(-c2ccc(F)c(NS(=O)(=O)c3cc(F)ccc3F)c2)c(-c2ccnc(NC3CCN(S(C)(=O)=O)CC3)n2)s1` [Example 75, 2,5-Difluoro-N-{2-fluoro-5-[2-(1-methylethyl)-5-(2-{[1-(methylsulfonyl)-4-piperidinyl]amino}-4-pyrimidinyl)-1,3-thiazol-4-yl]phenyl}benzenesulfonamide], the IC50 in assay [1] (setting [4]) is under 100 nM; in assay [1] (setting [5]), at most 3.16 nM; in assay [2] (setting [6]) it was under 100 nM; in assay [2] (setting [7]), under 100 nM; in assay [3] (setting [8]) it was under 100 nM; in assay [3] (setting [9]), under 100 nM.

With `CC(C)c1nc(-c2ccc(F)c(NS(=O)(=O)c3cc(F)ccc3F)c2)c(-c2ccnc(NC3CCOCC3)n2)s1` [Example 76, 2,5-Difluoro-N-(2-fluoro-5-{2-(1-methylethyl)-5-[2-(tetrahydro-2H-pyran-4-ylamino)-4-pyrimidinyl]-1,3-thiazol-4-yl}phenyl)benzenesulfonamide], the IC50 is under 100 nM in assay [1] (setting [4]); 3.16 to 31.6 nM in assay [1] (setting [10]); 100 to 1000 nM in assay [2] (setting [6]); 100 to 1000 nM in assay [2] (setting [7]); 100 to 1000 nM in assay [3] (setting [8]); 100 to 1000 nM in assay [3] (setting [9]).

In the case of `CC(=O)N1CCC(Nc2nccc(-c3sc(C(C)C)nc3-c3ccc(F)c(NS(=O)(=O)c4cc(F)ccc4F)c3)n2)CC1` [Example 77, N-{5-[5-{2-[(1-Acetyl-4-piperidinyl)amino]-4-pyrimidinyl}-2-(1-methylethyl)-1,3-thiazol-4-yl]-2-fluorophenyl}-2,5-difluorobenzenesulfonamide], the IC50 is under 100 nM in assay [1] (setting [4]); 3.16 to 31.6 nM in assay [1] (setting [10]); under 100 nM in assay [2] (setting [6]); under 100 nM in assay [2] (setting [7]); under 100 nM in assay [3] (setting [8]); under 100 nM in assay [3] (setting [9]).

For `CC(C)(C)c1nc(-c2cccc(NS(=O)(=O)c3c(F)cccc3F)c2F)c(-c2ccnc(NC3CCN(S(C)(=O)=O)CC3)n2)s1` [Example 78, N-{3-[2-(1,1-Dimethylethyl)-5-(2-{[1-(methylsulfonyl)-4-piperidinyl]amino}-4-pyrimidinyl)-1,3-thiazol-4-yl]-2-fluorophenyl}-2,6-difluorobenzenesulfonamide], the IC50 in assay [1] (setting [4]) is under 100 nM; in assay [1] (setting [5]), at most 3.16 nM; in assay [2] (setting [6]), under 100 nM; in assay [2] (setting [7]), under 100 nM; in assay [3] (setting [8]), under 100 nM; in assay [3] (setting [9]) it was under 100 nM.

Take `CS(=O)(=O)N1CCC(Nc2nccc(-c3sc(N4CCOCC4)nc3-c3cccc(NS(=O)(=O)c4c(F)cccc4F)c3F)n2)CC1` [Example 79, 2,6-Difluoro-N-{2-fluoro-3-[5-(2-{[1-(methylsulfonyl)-4-piperidinyl]amino}-4-pyrimidinyl)-2-(4-morpholinyl)-1,3-thiazol-4-yl]phenyl}benzenesulfonamide]: the IC50 in assay [1] (setting [4]) was under 100 nM; in assay [1] (setting [5]) it was at most 3.16 nM; in assay [2] (setting [6]) it was under 100 nM; in assay [2] (setting [7]), under 100 nM; in assay [3] (setting [8]) it was under 100 nM; in assay [3] (setting [9]) it was under 100 nM.

For `CS(=O)(=O)N1CCC(Nc2nccc(-c3sc(C4CCC4)nc3-c3ccc(F)c(NS(=O)(=O)c4cc(F)ccc4F)c3)n2)CC1` [Example 80, N-{5-[2-Cyclobutyl-5-(2-{[1-(methylsulfonyl)-4-piperidinyl]amino}-4-pyrimidinyl)-1,3-thiazol-4-yl]-2-fluorophenyl}-2,5-difluorobenzenesulfonamide], the IC50 was under 100 nM in assay [1] (setting [4]); 3.16 to 31.6 nM in assay [1] (setting [10]); 100 to 1000 nM in assay [2] (setting [6]); 100 to 1000 nM in assay [2] (setting [7]); 100 to 1000 nM in assay [3] (setting [8]); 100 to 1000 nM in assay [3] (setting [9]).
